Experimental findings from patent US11185593B2, “Alkylating agent for alkylating target with driver oncogene mutation” (Chiba Prefecture, priority 2013, dated 2021) are described below.

Assay [1] deals with gene sequence of the codon 12 mutation of the KRAS gene. The experiment in a line: Confirmation of alkylation of KRAS codon 12 mutation sequence, high resolution gel electrophoresis. It counts as biochemical. The settings on record: 23° C., 17 hours. How it is done: A 25 μM pair of two fragments (5′-[…]-3′ (SEQ ID NO: 1) and 3′-[…]-5′ (SEQ ID NO: 2)) (final volume: 50 μL) was annealed to obtain a DNA fragment. The annealed fragment was ligated to a pGEM-T easy vector manufactured by […]. Thereafter, Escherichia coli (JM109) competent cells manufactured by Promega were transformed with the obtained product, and the resulting cells were then cultured at 37° C. overnight in a plate comprising an LB medium containing 100 μg/mL ampicillin. A transformed white colony of interest was identified by colony direct PCR using a 500 nM primer set (T7: 5′-TAATACGACTCACTATAGG-3′ (SEQ ID NO: 3); and sp6: 5′-[…]-3′ (SEQ ID NO: 4)) and 10 μL of a reaction solution containing 1 U GoTaq® Green Master Mix manufactured by Promega. The following amplification cycle was applied. […]
A DNA fragment, 213 base pairs in length, the 5′-terminus of which had been labeled with Texas Red, was synthesized using the above-described plasmid and primers (sp6: 5′-ATTTAGGTGACACTATAG-3′ (SEQ ID NO: 5), and T7: 5′-[…]-3′ (SEQ ID NO: 6), with 5′-terminus labeled with Texas Red). The obtained DNA fragment, the 5′-terminus of which had been labeled with Texas Red, was purified using PCR-Clean Up Kit manufactured by Sigma, and the concentration was then determined by UV absorption. […]

Assay [2] concerns KRAS gene. The experiment in a line: Semi-quantitative analysis of gene expression by RT-PCR. The class given is cell-based, human. Conditions: LS180 (KRAS gene codon 12 mutation), 50 nM, 48 hours, FIG. 11B. Here is the method:
HT29 and LS180 were each cultured in a 12-well plate. On the following day, the cells were treated with 50 nM KR12 or KR13, and were then cultured for 48 hours. Thereafter, the cultured cells were harvested, and RNA was then extracted. For the extraction, RT-PCR was carried out using RNeasy mini kit (Qiagen, CA). Subsequently, using the extracted RNA as a template, cDNA for reverse transcription was prepared by employing Super Script VILO cDNA Synthesis Kit (Invitrogen, CA). Using the prepared cDNA as a template, PCR was carried out. After a reaction had been carried out at 94° C. for 5 minutes, a reaction cycle of 94° C.-30 seconds, 55° C.-30 seconds, and 72° C.-30 seconds was repeated 20 times. Finally, an elongation reaction was carried out at 72° C. for 7 minutes. The PCR product was subjected to electrophoresis on 2% agarose gel. The amount of the PCR product was calculated using a photograph of a band stained with ethidium bromide.
The below-mentioned primer set was used in PCR.
A forward primer (sense) and a reverse primer (antisense), which amplify both mutant and wild-type KRAS genes, and a forward primer (sense) and a reverse primer (antisense) for an RPS18 (ribosomal protein S18) gene used as an internal standard are shown below.

Consider `CC(=O)Nc1cn(C)c(C(=O)Nc2cc(C(=O)NCCC(=O)Nc3cn(C)c(C(=O)Nc4cn(C)c(C(=O)Nc5cc(C(=O)Nc6cn(C)c(C(=O)NCCCC(=O)Nc7cc(C(=O)Nc8cn(C)c(C(=O)NCCC(=O)Nc9cc(C(=O)Nc%10cc(C(=O)Nc%11ccc%12[nH]c(C(=O)N%13CC(CCl)c%14c%13cc(O)c%13ccccc%14%13)cc%12c%11)n(C)c%10)n(C)c9)n8)n(C)c7)n6)n(C)c5)n4)n3)n(C)c2)n1` (stereo not drawn) [KR12], for which the “alkylation of the gene sequence of the codon 12 mutation of the KRAS gene” value was “specifically induced concentration-dependent alkylation” in assay [1] (mutated KRAS sequence of AsPC-1 cells (G12D), FIG. 7B) and “specifically induced concentration-dependent alkylation” in assay [1] (mutated KRAS sequence of SW480 cells (G12V), FIG. 7A). Further, the “expression of the KRAS gene” value in assay [2] is recorded as “significantly suppressed”.
